What was measured:
Format in all cases: in vivo
[1] = tested on: cat fleas; assay: Test on insecticidal effect against cat fleas (Test Example 12, serum feeding through Parafilm); conditions: 1 ppm in bovine serum, 37° C., after 48 hours, corrected by control group
Protocol: (§1) A test container wherein the living space of fleas was isolated from bovine serum by use of Parafilm™ (obtainable from Aldrich Chemical Co. Ltd.), which is usually used as an artificial skin, was prepared. A compound to be tested was added to the bovine serum in an amount sufficient for its concentration to be 1 ppm, and the fleas were allowed to suck the serum sample through the Parafilm™ at 37° C. Each group consisted of 20 fleas. […] By counting the dead fleas in a control group without a test compound, the mortality was corrected.

[2] = tested on: cat fleas; assay: whole plant or invertebrate; conditions: 1 ppm in bovine serum sucked through Parafilm at 37° C., dead fleas after 48 hours, 20 fleas per group, corrected by control group
Protocol: as §1

[3] = tested on: two-spotted spider mites; assay: Test on miticidal effect against two-spotted spider mites, cowpea leaf dip (Test Example 9); conditions: for The death rate of mites (%): cowpea leaf dip, 2 days after treatment; for Death rate of hatchlings (%) / Death rate of mite eggs (%): 7 days after treatment; for Death rate of mite eggs (%): unhatched eggs; for The egg of two-spotted spider mite (7 days after) dead: number of dead eggs of total 20
Protocol: The remainder of the test compound solution was removed and the treated leaf was allowed to stand in a Petri dish containing a sponge covered with a filter paper soaked in water. After the test compound solution on the leaf had dried, eggs of the mites were marked. The leaf was then allowed to stand at 25° C. on the Petri dish without a lid. Two days after treatment with the test compound, the death rate of mites (expressed as a percentage of the total number of mites) was determined. Seven to ten days after the treatment, the “death rate” of the mite eggs (expressed as the percentage of the total number of mite eggs which were unhatched) and the death rate of the hatchlings (expressed as the percentage of the total number of hatchlings which were killed) was estimated. The test was repeated at different concentrations of the test compound. “Untreated” in this test means the control test in which water was used instead of the test compound solution.

## CCC1OC2(CCC1C)CC1CC(CC=C(C)C(OC(=O)C3(c4ccc(NS(C)(=O)=O)cc4)CCC3)C(C)C=CC=C3COC4C(O)C(C)=CC(C(=O)O1)C34O)O2 (stereo not drawn) [Example 17, 13-[1-(4-Methanesulfonylaminophenyl)cyclobutanecarbonyloxy]-5-hydroxy-milbemycin A4]
[1]
  Mortality (%): 94.9%

## CCC1OC2(CCC1C)CC1CC(CC=C(C)C(OC(=O)C3(c4ccc(NC(C)=O)cc4)CCCC3)C(C)C=CC=C3COC4C(O)C(C)=CC(C(=O)O1)C34O)O2 (stereo not drawn) [Example 2, 13-[1-(4-Acetylaminophenyl)cyclopentanecarbonyloxy]-5-hydroxymilbemycin A4]
[2]
  Mortality (%): 95.0%

## CCC1OC2(CCC1C)CC1CC(CC=C(C)C(OC(=O)C3(c4ccc(NS(C)(=O)=O)cc4)CCCC3)C(C)C=CC=C3COC4C(O)C(C)=CC(C(=O)O1)C34O)O2 (stereo not drawn) [Example 4, 13-[1-(4-Methanesulfonylaminophenyl)cyclopentanecarbonyloxy]-5-hydroxy-milbemycin A4]
[2]
  Mortality (%): 100.0%

## C#CCCC(=O)Nc1ccc(C2(C(=O)OC3C(C)=CCC4CC(CC5(CCC(C)C(CC)O5)O4)OC(=O)C4C=C(C)C(O)C5OCC(=CC=CC3C)C45O)CCC2)cc1 (stereo not drawn) [Example 19, 13-[1-(4-Pentynoylaminophenyl)cyclobutanecarbonyloxy]-5-hydroxymilbemycin A4]
[1]
  Mortality (%): 90.7%

## CCC1OC2(CCC1C)CC1CC(CC=C(C)C(OC(=O)C3(c4ccc(NC(=O)C(F)(F)F)cc4)CCC3)C(C)C=CC=C3COC4C(O)C(C)=CC(C(=O)O1)C34O)O2 (stereo not drawn) [Example 18, 13-[1-(4-Trifluoroacetylaminophenyl)cyclobutanecarbonyloxy]-5-hydroxy-milbemycin A4]
[1]
  Mortality (%): 91.5%

## CCC1OC2(CCC1C)CC1CC(CC=C(C)C(OC(=O)C3(c4ccc(NC(=O)COC)cc4)CCC3)C(C)C=CC=C3COC4C(O)C(C)=CC(C(=O)O1)C34O)O2 (stereo not drawn) [Example 15, 13-[1-(4-Methoxyacetylaminophenyl)cyclobutanecarbonyloxy]-5-hydroxy-milbemycin A4]
[1]
  Mortality (%): 100%

## CC1=CC2C(=O)OC3CC(CC=C(C)C(OC(=O)C4(c5ccc(NS(C)(=O)=O)cc5)CCCC4)C(C)C=CC=C4COC(C1O)C42O)OC1(CCC(C)C(C)O1)C3 (stereo not drawn) [Example 9, 13-[1-(4-Methanesulfonylaminophenyl)cyclopentanecarbonyloxy]-5-hydroxy-milbemycin A3]
[2]
  Mortality (%): 83.2%

## CCC1OC2(CCC1C)CC1CC(CC=C(C)C(OC(=O)C3(c4ccc(N)cc4)CCCC3)C(C)C=CC=C3COC4C(O)C(C)=CC(C(=O)O1)C34O)O2 (stereo not drawn) [Example 1(b), 13-[1-(4-Aminophenyl)cyclopentanecarbonyloxy]-5-hydroxymilbemycin A4]
[2]
  Mortality (%): 95.0%

## COCC(=O)Nc1ccc(C2(C(=O)OC3C(C)=CCC4CC(CC5(CCC(C)C(C)O5)O4)OC(=O)C4C=C(C)C(O)C5OCC(=CC=CC3C)C45O)CCCC2)cc1 (stereo not drawn) [Example 8, 13-[1-(4-Methoxyacetylaminophenyl)cyclopentanecarbonyloxy]-5-hydroxy-milbemycin A3]
[2]
  Mortality (%): 87.6%

## CCC1OC2(CCC1C)CC1CC(CC=C(C)C(OC(=O)C3(c4ccc(NC(=O)CO)cc4)CCCC3)C(C)C=CC=C3COC4C(O)C(C)=CC(C(=O)O1)C34O)O2 (stereo not drawn) [Example 5, 13-[1-(4-Hydroxyacetylaminophenyl)cyclopentanecarbonyloxy]-5-hydroxy-milbemycin A4]
[2]
  Mortality (%): 74.4%

## CCC1OC2(CCC1C)CC1CC(CC=C(C)C(OC(=O)C3(c4ccc(NC(=O)CN(C)C(C)=O)cc4)CCCC3)C(C)C=CC=C3COC4C(O)C(C)=CC(C(=O)O1)C34O)O2 (stereo not drawn) [Example 6, 13-{1-[4-(N-Acetyl-N-methylglycylamino)phenyl]cyclopentanecarbonyloxy}-5-hydroxymilbemycin A4]
[2]
  Mortality (%): 79.5%

## CC[C@H]1O[C@]2(CC[C@@H]1C)C[C@@H]1C[C@@H](C/C=C(\C)[C@H](OC(=O)C3(c4ccccc4)CCCC3)[C@@H](C)/C=C/C=C3\CO[C@@H]4[C@H](O)C(C)=C[C@@H](C(=O)O1)[C@]34O)O2 [Comparative Compound A, reference compound]
[2]; Ctenocephalides felis
  mortality at 1 ppm: 2.4%
[1]; Ctenocephalides felis
  mortality at 1 ppm: 2.4%

## CC[C@H]1O[C@]2(CC[C@@H]1C)C[C@@H]1C[C@@H](C/C=C(\C)[C@H](OC(=O)C3(c4ccc(NC(=O)COC)cc4)CCCC3)[C@@H](C)/C=C/C=C3\CO[C@@H]4[C@H](O)C(C)=C[C@@H](C(=O)O1)[C@]34O)O2 [Test Compound Solution]
[3]; 0.1 ppm
  The death rate of mites (%): 98.5%
[3]; 0.1 ppm, number of dead mites of total 65
  two-spotted spider mite (2 days after) dead: 64
[3]; 0.1 ppm, number of mites in agony of total 65
  two-spotted spider mite (2 days after) agony: 1
[3]; 1 ppm
  Death rate of hatchlings (%): 30%
  Death rate of mite eggs (%): 0%
  The death rate of mites (%): 100%
  The egg of two-spotted spider mite (7 days after) dead: 0
[3]; 1 ppm, number of dead mites of total 55
  two-spotted spider mite (2 days after) dead: 55
[3]; 10 ppm
  Death rate of hatchlings (%): 100%
  Death rate of mite eggs (%): 25%
  The death rate of mites (%): 100%
  The egg of two-spotted spider mite (7 days after) dead: 5
[3]; 10 ppm, number of dead mites of total 39
  two-spotted spider mite (2 days after) dead: 39
[3]; 100 ppm
  Death rate of hatchlings (%): 100%
  Death rate of mite eggs (%): 90%
  The death rate of mites (%): 100%
  The egg of two-spotted spider mite (7 days after) dead: 18
[3]; 100 ppm, number of dead mites of total 48
  two-spotted spider mite (2 days after) dead: 48

## CCC1OC2(CCC1C)CC1CC(CC=C(C)C(OC(=O)C3(c4ccc(NC(=O)CC#N)cc4)CCCC3)C(C)C=CC=C3COC4C(O)C(C)=CC(C(=O)O1)C34O)O2 (stereo not drawn) [Example 3, 13-[1-(4-Cyanoacetylaminophenyl)cyclopentanecarbonyloxy]-5-hydroxymilbemycin A4]
[2]
  Mortality (%): 81.4%

## CCC1OC2(CCC1C)CC1CC(CC=C(C)C(OC(=O)C3(c4ccc(NC(C)=O)cc4)CCC3)C(C)C=CC=C3COC4C(O)C(C)=CC(C(=O)O1)C34O)O2 (stereo not drawn) [Example 16, 13-[1-(4-Acetylaminophenyl)cyclobutanecarbonyloxy]-5-hydroxymilbemycin A4]
[1]
  Mortality (%): 92.9%

From patent publication US6653342B2, “13-substituted milbemycin derivatives, their preparation and their use against insects and other pests” (Sankyo Company, Limited, priority 2000, dated 2003)
